Our source for the EC50 values is patent publication US20250206757A1 (GASHERBRUM BIO, INC., priority 2022, published 2025).

The target of this assay is GLP-1 Receptor (Homo sapiens, UniProt P43220). Description: GLP-1R agonist cAMP stimulation assay (HEK293/GLP1R/CRE-LUC cells, HTRF cAMP dynamic 2 kit). The assay is classed as cell-based. Particulars: HEK293/CRE-Luc cell line stably expressing the GLP-1 Receptor; 30 min incubation at 37° C. The essentials: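 HEK293 cells stably expressing GLP-1R with CRE-Luc, 1000 cells/well in DPBS with 0.5 mM IBMX and 0.10% BSA, exposed to half-log compound dilutions for 30 min at 37 °C. cAMP measured by HTRF (665/615 nm) after 1 h at room temperature.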

The structures appear in SMILES notation. Bounds are passed on as bounds.

Sequence of GLP-1 Receptor (P43220 24-463): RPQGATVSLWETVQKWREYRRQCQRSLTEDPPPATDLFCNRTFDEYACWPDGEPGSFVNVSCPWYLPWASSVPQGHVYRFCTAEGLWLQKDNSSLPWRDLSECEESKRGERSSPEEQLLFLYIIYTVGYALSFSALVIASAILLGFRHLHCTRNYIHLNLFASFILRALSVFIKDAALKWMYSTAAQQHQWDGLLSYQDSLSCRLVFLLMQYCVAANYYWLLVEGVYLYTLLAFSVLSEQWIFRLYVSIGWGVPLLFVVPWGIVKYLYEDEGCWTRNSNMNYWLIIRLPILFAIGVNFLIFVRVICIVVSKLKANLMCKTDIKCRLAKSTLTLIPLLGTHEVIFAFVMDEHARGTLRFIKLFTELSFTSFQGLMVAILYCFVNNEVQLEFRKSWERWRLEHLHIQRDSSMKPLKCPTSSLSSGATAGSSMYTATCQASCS

As to `Cc1cc2c(nc1OCc1c(F)cc(Cl)cc1F)CN(Cc1nc3cc(-c4noc(=O)[nH]4)ccc3n1C[C@@H]1CCO1)CC2` [Compound 37, 3-[2-({2-[(4-chloro-2,6-difluorophenyl)methoxy]-3-methyl-5,6,7,8-tetrahydro-1,7-naphthyridin-7-yl}methyl)-1-{[(2S)-oxetan-2-yl]methyl}-1H-1,3-benzodiazol-5-yl]-4,5-dihydro-1,2,4-oxadiazol-5-one], the EC50 is less than 1 nM. For `O=c1[nH]c(-c2cc3nc(CN4CCc5cc(C(F)(F)F)c(OCc6ccc(Cl)cc6F)nc5C4)n(C[C@@H]4CCO4)c3cc2F)no1` [Compound 38, 3-[2-({2-[(4-chloro-2-fluorophenyl)methoxy]-3-(trifluoromethyl)-5,6,7,8-tetrahydro-1,7-naphthyridin-7-yl}methyl)-6-fluoro-1-{[(2S)-oxetan-2-yl]methyl}-1H-1,3-benzodiazol-5-yl]-4,5-dihydro-1,2,4-oxadiazol-5-one] the value was 1 to 300 nM; for `Fc1cc(Cl)cc(F)c1COc1nc2c(cc1C(F)(F)F)CCN(Cc1nc3cc(-c4nnc(C(F)(F)F)[nH]4)nnc3n1C[C@@H]1CCO1)C2` [Compound 39, 2-[(4-chloro-2,6-difluorophenyl)methoxy]-7-[(7-{[(2S)-oxetan-2-yl]methyl}-3-[5-(trifluoromethyl)-4H-1,2,4-triazol-3-yl]-7H-imidazo[4,5-c]pyridazin-6-yl)methyl]-3-(trifluoromethyl)-5,6,7,8-tetrahydro-1,7-naphthyridine], less than 1 nM.

As for `Cc1cc2c(nc1OCc1c(F)cc(Cl)cc1F)CN(Cc1nc3cc(-c4nnc(C#N)[nH]4)ncc3n1C[C@@H]1CCO1)CC2` [Compound 40, 5-[2-({2-[(4-chloro-2,6-difluorophenyl)methoxy]-3-methyl-5,6,7,8-tetrahydro-1,7-naphthyridin-7-yl}methyl)-3-{[(2S)-oxetan-2-yl]methyl}-3H-imidazo[4,5-c]pyridin-6-yl]-4H-1,2,4-triazole-3-carbonitrile], the concentration for a half-maximal effect (EC50) was less than 1 nM. For `Cc1cc2c(nc1OCc1c(F)cc(Cl)cc1F)CN(Cc1nc3cc(-c4nnc(C#N)[nH]4)cnc3n1C[C@@H]1CCO1)CC2` [Compound 41, 5-[2-({2-[(4-chloro-2,6-difluorophenyl)methoxy]-3-methyl-5,6,7,8-tetrahydro-1,7-naphthyridin-7-yl}methyl)-3-{1[(2S)-oxetan-2-yl]methyl}-3H-imidazo[4,5-b]pyridin-6-yl]-4H-1,2,4-triazole-3-carbonitrile] the value was less than 1 nM; for `N#Cc1nnc(-c2cc3nc(CN4CCc5cc(C(F)(F)F)c(OCc6ccc(Cl)cc6F)nc5C4)n(C[C@@H]4CCO4)c3nn2)[nH]1` [Compound 42, 5-[6-({2-[(4-chloro-2-fluorophenyl)methoxy]-3-(trifluoromethyl)-5,6,7,8-tetrahydro-1,7-naphthyridin-7-yl}methyl)-7-{1[(2S)-oxetan-2-yl]methyl}-7H-imidazo[4,5-c]pyridazin-3-yl]-4H-1,2,4-triazole-3-carbonitrile], less than 1 nM. In turn, `NC(=O)c1nnc(-c2cc3nc(CN4CCc5cc(C(F)(F)F)c(OCc6ccc(Cl)cc6F)nc5C4)n(C[C@@H]4CCO4)c3cn2)[nH]1` [Compound 43, 5-[2-({2-[(4-chloro-2-fluorophenyl)methoxy]-3-(trifluoromethyl)-5,6,7,8-tetrahydro-1,7-naphthyridin-7-yl}methyl)-3-{[(2S)-oxetan-2-yl]methyl}-3H-imidazo[4,5-c]pyridin-6-yl]-4H-1,2,4-triazole-3-carboxamide] registered a 50% effective concentration (EC50) of less than 1 nM. For `NC(=O)c1nnc(-c2cc3nc(CN4CCc5cc(C(F)(F)F)c(OCc6c(F)cc(Cl)cc6F)nc5C4)n(C[C@@H]4CCO4)c3cn2)[nH]1` [Compound 44, 5-[2-({2-[(4-chloro-2,6-difluorophenyl)methoxy]-3-(trifluoromethyl)-5,6,7,8-tetrahydro-1,7-naphthyridin-7-yl}methyl)-3-{[(2S)-oxetan-2-yl]methyl}-3H-imidazo[4,5-c]pyridin-6-yl]-4H-1,2,4-triazole-3-carboxamide] the value was less than 1 nM; for `Cc1ccc(COc2nc3c(cc2C(F)(F)F)CCN(Cc2nc4c(F)c(-c5noc(=O)[nH]5)ccc4n2C[C@@H]2CCO2)C3)c(Cl)c1` [Compound 45], less than 1 nM; for `O=c1[nH]c(-c2ccc3c(nc(CN4CCc5cc(C(F)(F)F)c(OCc6ccc(Cl)cc6)nc5C4)n3C[C@@H]3CCO3)c2F)no1` [Compound 46, 3-[2-({2-[(4-chlorophenyl)methoxy]-3-(trifluoromethyl)-5,6,7,8-tetrahydro-1,7-naphthyridin-7-yl}methyl)-4-fluoro-1-{[(2S)-oxetan-2-yl]methyl}-1H-1,3-benzodiazol-5-yl]-4,5-dihydro-1,2,4-oxadiazol-5-one], less than 1 nM. For `O=c1[nH]c(-c2ccc3c(nc(CN4CCc5cc(C(F)(F)F)c(OCc6ccc(Cl)cc6F)nc5C4)n3C[C@@H]3CCO3)c2F)no1` [Compound 47, 3-[2-({2-[(4-chloro-2-fluorophenyl)methoxy]-3-(trifluoromethyl)-5,6,7,8-tetrahydro-1,7-naphthyridin-7-yl}methyl)-4-fluoro-1-{[(2S)-oxetan-2-yl]methyl}-1H-1,3-benzodiazol-5-yl]-4,5-dihydro-1,2,4-oxadiazol-5-one] the value was less than 1 nM; for `O=c1[nH]c(-c2ccc3c(nc(CN4CCc5cc(C(F)(F)F)c(OCc6c(F)cc(Cl)cc6F)nc5C4)n3C[C@@H]3CCO3)c2F)no1` [Compound 48, 3-[2-({2-[(4-chloro-2,6-difluorophenyl)methoxy]-3-(trifluoromethyl)-5,6,7,8-tetrahydro-1,7-naphthyridin-7-yl}methyl)-4-fluoro-1-{[(2S)-oxetan-2-yl]methyl}-1H-1,3-benzodiazol-5-yl]-4,5-dihydro-1,2,4-oxadiazol-5-one], 1 to 300 nM. For `O=c1[nH]c(-c2ccc3c(n2)nc(CN2CCc4cc(C(F)(F)F)c(OCc5ccc(Cl)cc5F)nc4C2)n3C[C@@H]2CCO2)no1` [Compound 49, 3-[2-({2-[(4-chloro-2-fluorophenyl)methoxy]-3-(trifluoromethyl)-5,6,7,8-tetrahydro-1,7-naphthyridin-7-yl}methyl)-1-{[(2S)-oxetan-2-yl]methyl}-11H-imidazo[4,5-b]pyridin-5-yl]-4,5-dihydro-1,2,4-oxadiazol-5-one] the value was less than 1 nM; for `Cc1cc2c(nc1OCc1c(F)cc(Cl)cc1F)CN(Cc1nc3nc(-c4noc(=O)[nH]4)ccc3n1C[C@@H]1CCO1)CC2` [Compound 50, 3-[2-({2-[(4-chloro-2,6-difluorophenyl)methoxy]-3-methyl-5,6,7,8-tetrahydro-1,7-naphthyridin-7-yl}methyl)-1-{1[(2S)-oxetan-2-yl]methyl}-1H-imidazo[4,5-b]pyridin-5-yl]-4,5-dihydro-1,2,4-oxadiazol-5-one], less than 1 nM; for `Cc1cc2c(nc1OCc1c(F)cc(Cl)cc1F)CN(Cc1nc3cc(-c4nnc(C(F)(F)F)[nH]4)cnc3n1C[C@@H]1CCO1)CC2` [Compound 51, 2-[(4-chloro-2,6-difluorophenyl)methoxy]-3-methyl-7-[(3-{1[(2S)-oxetan-2-yl]methyl}-6-[5-(trifluoromethyl)-4H-1,2,4-triazol-3-yl]-3H-imidazo[4,5-b]pyridin-2-yl)methyl]-5,6,7,8-tetrahydro-1,7-naphthyridine], less than 1 nM.

Take `Cc1cc2c(nc1OCc1ccc(Cl)cc1F)CN(Cc1nc3cc(-c4nnc(C(F)F)[nH]4)cnc3n1C[C@@H]1CCO1)CC2` [Compound 52, 2-[(4-chloro-2-fluorophenyl)methoxy]-7-({6-[5-(difluoromethyl)-4H-1,2,4-triazol-3-yl]-3-{[(2S)-oxetan-2-yl]methyl}-3H-imidazo[4,5-b]pyridin-2-yl}methyl)-3-methyl-5,6,7,8-tetrahydro-1,7-naphthyridine]: the concentration giving a half-maximal response (EC50) was less than 1 nM. For `Cc1cc2c(nc1OCc1c(F)cc(Cl)cc1F)CN(Cc1nc3cc(-c4nnc(C(F)F)[nH]4)cnc3n1C[C@@H]1CCO1)CC2` [Compound 53, 2-[(4-chloro-2,6-difluorophenyl)methoxy]-7-({6-[5-(difluoromethyl)-4H-1,2,4-triazol-3-yl]-3-{1[(2S)-oxetan-2-yl]methyl}-3H-imidazo[4,5-b]pyridin-2-yl}methyl)-3-methyl-5,6,7,8-tetrahydro-1,7-naphthyridine] the value was less than 1 nM.

Consider `FC(F)(F)c1nnc(-c2cc3nc(CN4CCc5cc(C(F)(F)F)c(OCc6ccc(Cl)cc6)nc5C4)n(C[C@@H]4CCO4)c3cn2)[nH]1` [Compound 54, 2-[(4-chlorophenyl)methoxy]-7-[(3-{1[(2S)-oxetan-2-yl]methyl}-6-[5-(trifluoromethyl)-4H-1,2,4-triazol-3-yl]-3H-imidazo[4,5-c]pyridin-2-yl)methyl]-3-(trifluoromethyl)-5,6,7,8-tetrahydro-1,7-naphthyridine], for which the EC50 is less than 1 nM. For `Cc1cc2c(nc1OCc1c(F)cc(Cl)cc1F)CN(Cc1nc3cc(-c4nnc(C(F)(F)F)[nH]4)ncc3n1C[C@@H]1CCO1)CC2` [Compound 55, 2-[(4-chloro-2,6-difluorophenyl)methoxy]-3-methyl-7-[(3-{1[(2S)-oxetan-2-yl]methyl}-6-[5-(trifluoromethyl)-4H-1,2,4-triazol-3-yl]-3H-imidazo[4,5-c]pyridin-2-yl)methyl]-5,6,7,8-tetrahydro-1,7-naphthyridine], the 50% effective concentration (EC50) was less than 1 nM.

Turning to `Cc1cc2c(nc1OCc1c(F)cc(Cl)cc1F)CN(Cc1nc3cc(-c4nnc(C(F)F)[nH]4)ncc3n1C[C@@H]1CCO1)CC2` [Compound 56, 2-[(4-chloro-2,6-difluorophenyl)methoxy]-7-({6-[5-(difluoromethyl)-4H-1,2,4-triazol-3-yl]-3-{[(2S)-oxetan-2-yl]methyl}-3H-imidazo[4,5-c]pyridin-2-yl}methyl)-3-methyl-5,6,7,8-tetrahydro-1,7-naphthyridine], the EC50 is less than 1 nM.
